pEC50: −log10 of the molar value.
Molecular target: T1, ADAR1 (Homo sapiens, UniProt P55265)
T1 construct: endogenous in cells; host or cells: p110 KO A549 dual cells
T1 sequence (P55265 1-1226): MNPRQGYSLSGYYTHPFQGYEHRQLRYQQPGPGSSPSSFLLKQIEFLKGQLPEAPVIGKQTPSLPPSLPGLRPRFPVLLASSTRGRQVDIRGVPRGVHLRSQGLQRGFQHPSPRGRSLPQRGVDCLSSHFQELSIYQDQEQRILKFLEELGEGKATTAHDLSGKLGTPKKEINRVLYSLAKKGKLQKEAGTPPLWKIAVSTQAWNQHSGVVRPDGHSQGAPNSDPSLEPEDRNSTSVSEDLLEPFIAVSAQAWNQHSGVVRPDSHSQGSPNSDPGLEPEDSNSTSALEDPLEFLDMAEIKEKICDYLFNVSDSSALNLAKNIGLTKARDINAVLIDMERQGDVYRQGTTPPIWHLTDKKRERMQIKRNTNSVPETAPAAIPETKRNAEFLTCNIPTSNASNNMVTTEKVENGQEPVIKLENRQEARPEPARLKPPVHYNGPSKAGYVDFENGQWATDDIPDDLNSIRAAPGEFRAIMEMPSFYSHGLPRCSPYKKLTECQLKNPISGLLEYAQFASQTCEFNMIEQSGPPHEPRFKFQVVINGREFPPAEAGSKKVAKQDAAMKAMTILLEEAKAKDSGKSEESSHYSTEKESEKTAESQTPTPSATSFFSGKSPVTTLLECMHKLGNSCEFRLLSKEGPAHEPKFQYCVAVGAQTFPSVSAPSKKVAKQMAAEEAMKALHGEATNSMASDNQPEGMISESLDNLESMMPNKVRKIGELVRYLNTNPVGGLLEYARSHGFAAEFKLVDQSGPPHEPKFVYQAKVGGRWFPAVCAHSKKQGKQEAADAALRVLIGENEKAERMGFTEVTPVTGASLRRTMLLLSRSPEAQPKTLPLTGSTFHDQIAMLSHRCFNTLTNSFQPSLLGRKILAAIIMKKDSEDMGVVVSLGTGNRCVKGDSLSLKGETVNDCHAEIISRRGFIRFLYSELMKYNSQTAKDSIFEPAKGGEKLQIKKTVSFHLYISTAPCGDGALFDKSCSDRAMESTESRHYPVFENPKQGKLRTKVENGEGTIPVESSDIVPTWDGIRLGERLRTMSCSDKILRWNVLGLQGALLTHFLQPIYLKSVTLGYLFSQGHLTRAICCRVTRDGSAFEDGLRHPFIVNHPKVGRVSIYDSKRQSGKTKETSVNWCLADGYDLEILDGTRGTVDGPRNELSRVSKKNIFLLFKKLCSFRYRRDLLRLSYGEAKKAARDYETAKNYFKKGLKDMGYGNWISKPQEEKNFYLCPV
Assay: ADAR1 Inhibition Assay (IFN fold-induction, Quanti-Luc luminescence, p110 KO A549 dual cells)
Assay type: cell-based
Details: IFN fold-induction vs DMSO, 24 and 48 h
Procedure: An ADAR1 Inhibition Assay was used to determine the biological activity (EC50) of compounds disclosed herein. 100 μL of p110 KO A549 dual cell suspension in supplemented DMEM (20,000 cells per well) was added into a flat bottom 96 well plate. Next day, post media change, 180 μL of supplemented DMEM was added. 20 μL of test compound or positive control was added to the respective wells (Final concentration of DMSO is 1%). The plate was incubated for 24 and 48 hours at 37° C. in a 5% CO2 incubator. After 24 and 48 h, 20 μL of cell suspension was taken in black well plates and 50 μL of Quanti-Luc was added to each well and luminescence was measured using a microplate reader (Spectra Max). IFN fold-induction was plotted considering DMSO as control using the relative luminescence unit (RLU) values. (Fold induction: Sample RLU/Average DMSO RLU).

Work on `NS(=O)(=O)c1cccc(C(=O)OCC(=O)Nc2ccc(-c3ccccc3)s2)c1` [Compound 78] yielded a pEC50 of under 4.00.

For `CCOC(=O)c1cc(-c2ccccc2)sc1NC(=O)[C@H](CC)OC(=O)c1cccc(S(N)(=O)=O)c1` [Compound 79], the pEC50 was under 4.00.

With `CCOC(=O)c1cc(-c2ccccc2)sc1NC(=O)[C@H](CC)OC(=O)c1cccc(NS(C)(=O)=O)c1` [Compound 80] the pEC50 was under 4.00.

With `CCOC(=O)c1cc(-c2ccc(C(C)C)cc2)sc1NC(=O)COC(=O)c1cccc(S(N)(=O)=O)c1` [Compound 81] the pEC50 was under 4.00.

In the case of `CCOC(=O)c1cc(-c2ccccc2)sc1NC(=O)COC(=O)c1cccc(OS(C)(=O)=O)c1` [Compound 82], the pEC50 was under 4.00.

Work on `Cc1cc(C#N)c(NC(=O)COC(=O)c2cccc(S(N)(=O)=O)c2)s1` [Compound 83] yielded a pEC50 of under 4.00.

In the case of `CS(=O)(=O)Oc1cccc(C(=O)OCC(=O)Nc2sc(-c3ccccc3)cc2C(N)=O)c1` [Compound 84], the pEC50 was under 4.00.

Work on `CS(=O)(=O)Nc1cccc(C(=O)OCC(=O)Nc2sc(-c3ccccc3)cc2C(=O)NC2CC2)c1` [Compound 85] yielded a pEC50 of under 4.00.

Compound `CCOC(=O)c1c(NC(=O)COC(=O)c2cccc(NS(C)(=O)=O)c2)sc2c1CCC2` [Compound 86] has a pEC50 of under 4.00.

With `CCOC(=O)c1cc(-c2ccccc2)sc1NC(=O)c1cccc(C#N)c1` [Compound 88] the pEC50 was under 4.00.

Work on `CCOC(=O)c1c(NC(=O)COC(=O)c2cccc(NS(C)(=O)=O)c2)sc2c1CCCC2` [Compound 89] yielded a pEC50 of under 4.00.

In the case of `CS(=O)(=O)Nc1cccc(C(=O)OCC(=O)Nc2sccc2C#N)c1` [Compound 90], the pEC50 was under 4.00.

`CCOC(=O)c1c(NC(=O)COC(=O)c2cccc(C#N)c2)sc2c1CCCC2` [Compound 91] was tested, and the pEC50 was under 4.00.

`CCOC(=O)c1cc(-c2ccccc2)sc1NC(=O)COC(=O)c1cccc(NS(=O)(=O)c2ccc(F)cc2)c1` [Compound 93] showed a pEC50 of under 4.00.

With `CCOC(=O)c1c(-c2ccccc2)csc1NC(=O)COC(=O)c1cccc(NS(C)(=O)=O)c1` [Compound 95] the pEC50 was under 4.00.

`CCOC(=O)c1cc(-c2ccccc2)sc1NC(=O)COC(=O)c1cccc(C(=O)O)c1` [Compound 96] showed a pEC50 of under 4.00.

In the case of `CCOC(=O)c1ccsc1NC(=O)COC(=O)c1cccc(NS(C)(=O)=O)c1` [Compound 97], the pEC50 was under 4.00.

For `CCOC(=O)c1cc(-c2ccc(OC(F)(F)F)cc2)sc1NC(=O)COC(=O)c1cccc(NS(C)(=O)=O)c1` [Compound 100], the pEC50 was under 4.00.

With `CCOC(=O)c1cc(-c2ccccc2)sc1NC(=O)COC(=O)c1ccc(NS(C)(=O)=O)cc1` [Compound 101] the pEC50 was under 4.00.

Compound `CCOC(=O)c1cc(-c2ccccc2)sc1NC(=O)COC(=O)c1cccc(NS(=O)(=O)c2ccc(C)cc2)c1` [Compound 102] has a pEC50 of under 4.00.

`CCOC(=O)c1cc(-c2ccc(S(C)(=O)=O)cc2)sc1NC(=O)COC(=O)c1cccc(NS(C)(=O)=O)c1` [Compound 103] gave a pEC50 of under 4.00.

With `CCOC(=O)c1c(NC(=O)COC(=O)c2cccc(NS(C)(=O)=O)c2)sc2c1CCN(C)C2` [Compound 104] the pEC50 was under 4.00.

In the case of `CCOC(=O)c1cc(-c2ccccc2)sc1NC(=O)CN(c1cccc(CO)c1)S(C)(=O)=O` [Compound 105], the pEC50 was under 4.00.

With `CCOC(=O)c1cc(-c2ccc(C(F)(F)F)cc2)sc1NC(=O)COC(=O)c1cccc(NS(C)(=O)=O)c1` [Compound 106] the pEC50 was under 4.00.

`CCOC(=O)c1cc(-c2ccc(F)cc2)sc1NC(=O)COC(=O)c1cccc(NS(C)(=O)=O)c1` [Compound 108] gave a pEC50 of at least 4.60.

Work on `CCOC(=O)c1cc(-c2ccccc2)sc1NC(=O)C1CCCN1C(=O)c1cccc(NS(C)(=O)=O)c1` (stereo not shown) [Compound 109] yielded a pEC50 of under 4.00.

`CCOC(=O)c1cc(-c2ccccc2)sc1NC(=O)COC(=O)c1ccccc1NS(C)(=O)=O` [Compound 110] was tested, and the pEC50 was under 4.00.

With `CCOC(=O)c1cc(-c2ccccc2)sc1NC(=O)C1CCCN(C(=O)c2cccc(S(N)(=O)=O)c2)C1` (stereo not shown) [Compound 111] the pEC50 was under 4.00.

Work on `CCOC(=O)c1cc(-c2ccccc2)sc1NC(=O)COC(=O)c1cccc(NS(N)(=O)=O)c1` [Compound 112] yielded a pEC50 of under 4.00.

Compound `CCOC(=O)c1ccc(-c2ccccc2)nc1NC(=O)COC(=O)c1cccc(NS(C)(=O)=O)c1` [Compound 113] has a pEC50 of under 4.00.

Work on `CCOC(=O)c1cc(-c2cncnc2)sc1NC(=O)COC(=O)c1cccc(NS(N)(=O)=O)c1` [Compound 115] yielded a pEC50 of under 4.00.

Compound `CCOC(=O)c1cc(-c2cccc(F)c2)sc1NC(=O)COC(=O)c1cccc(NS(C)(=O)=O)c1` [Compound 116] has a pEC50 of under 4.00.

`CCNC(=O)c1cc(-c2ccccc2)sc1NC(=O)COC(=O)c1cccc(NS(C)(=O)=O)c1` [Compound 117] showed a pEC50 of under 4.00.

In the case of `CCOC(=O)c1cc(-c2ccc(F)cc2)sc1NC(=O)C1CCCN1C(=O)c1cccc(NS(C)(=O)=O)c1` (stereo not shown) [Compound 119], the pEC50 was under 4.00.

`CCOC(=O)c1ccc(-c2ccccc2)cc1NC(=O)COC(=O)c1cccc(NS(C)(=O)=O)c1` [Compound 120] gave a pEC50 of under 4.00.

`CCOC(=O)c1cc(-c2ccccc2)sc1NC(=O)CN(C)C(=O)c1cccc(S(N)(=O)=O)c1` [Compound 122] showed a pEC50 of under 4.00.

In the case of `CS(=O)(=O)Nc1cccc(C(=O)OCC(=O)Nc2sc(-c3ccccc3)cc2C(=O)N2CCOCC2)c1` [Compound 123], the pEC50 was under 4.00.

With `CCOC(=O)c1cc(-c2ccccc2)sc1NC(=O)COC(=O)c1cccc(NS(=O)(=O)c2ccccc2)c1` [Compound 124] the pEC50 was under 4.00.

For `CCOC(=O)c1cc(-c2ccccc2)sc1NC(=O)COC(=O)c1cc(NS(C)(=O)=O)ccc1C` [Compound 125], the pEC50 was under 4.00.

`CCOC(=O)c1cc(-c2ccccc2)sc1NC(=O)COC(=O)Cc1cccc(NS(C)(=O)=O)c1` [Compound 126] gave a pEC50 of under 4.00.

`CCOC(=O)c1cc(-c2ccccc2)sc1NC(=O)COC(=O)c1cc(NS(C)(=O)=O)c(F)cc1F` [Compound 128] was tested, and the pEC50 was under 4.00.

Work on `CCOC(=O)c1cc(-c2ccccc2)sc1NC(=O)COC(=O)c1cc(NS(C)(=O)=O)ccc1F` [Compound 129] yielded a pEC50 of under 4.00.

`CCOC(=O)c1cc(-c2ccccc2)sc1NC(=O)COC(=O)c1cccc(NS(=O)(=O)C(C)C)c1` [Compound 131] showed a pEC50 of under 4.00.

`CCCCS(=O)(=O)Nc1cccc(C(=O)OCC(=O)Nc2sc(-c3ccccc3)cc2C(=O)OCC)c1` [Compound 133] showed a pEC50 of under 4.00.

Compound `CCOC(=O)c1cc(-c2ccccc2)sc1NC(=O)COC(=O)c1cccc(NS(=O)(=O)CC)c1` [Compound 134] has a pEC50 of under 4.00.

With `CCOC(=O)c1cc(-c2ccc(N3CCOCC3)cc2)sc1NC(=O)COC(=O)c1cccc(NS(C)(=O)=O)c1` [Compound 135] the pEC50 was under 4.00.

`CCOC(=O)c1cc(-c2ccccc2)sc1NC(=O)COC(=O)c1cccc(NS(=O)(=O)N2CCOCC2)c1` [Compound 136] showed a pEC50 of under 4.00.

Compound `CCOC(=O)c1cc(-c2ccccc2)sc1NC(=O)C1CCN(C(=O)c2cccc(NS(C)(=O)=O)c2)C1` (stereo not shown) [Compound 138, Ethyl 2-(1-(3-(methylsulfonamido)benzoyl)pyrrolidine-3-carboxamido)-5-phenylthiophene-3-carboxylate] has a pEC50 of at least 4.60.

For `CCOC(=O)c1cc(-c2ccccc2)sc1CC(=O)C1CCCN1C(=O)c1cccc(C#N)c1` (stereo not shown) [Compound 139], the pEC50 was under 4.00.

`CCOC(=O)c1cc(-c2ccccc2)sc1NC(=O)COC(=O)c1cccc(NS(=O)(=O)N2CCCCC2)c1` [Compound 140] gave a pEC50 of under 4.00.

For `CCOC(=O)c1nc(-c2ccccc2)[nH]c1NC(=O)COC(=O)c1cccc(NS(C)(=O)=O)c1` [Compound 141], the pEC50 was under 4.00.

Work on `CCOC(=O)c1cc(-c2ccccc2)sc1NC(=O)COC(=O)C1CCCN(S(C)(=O)=O)C1` (stereo not shown) [Compound 142] yielded a pEC50 of under 4.00.

`CCOC(=O)c1cc(-c2ccccc2)sc1NC(=O)CN1CCN(S(C)(=O)=O)CC1` [Compound 143] showed a pEC50 of under 4.00.

`CCOC(=O)c1nc(-c2ccccc2)oc1NC(=O)COC(=O)c1cccc(NS(C)(=O)=O)c1` [Compound 145] showed a pEC50 of under 4.00.

`CCOC(=O)c1cc(-c2ccccc2)sc1NC(=O)C1CCN1C(=O)c1cccc(NS(C)(=O)=O)c1` (stereo not shown) [Compound 146] was tested, and the pEC50 was under 4.00.

— patent US20260200890A1, “ADAR1 INHIBITORS AND METHODS OF USING THE SAME” (AVAMMUNE THERAPEUTICS INC., priority 2022, published 2026)
